The text below walks through data of patent US7928085B2, “P-toluene sulfonic acid salt of 5-amino-3-(2′-O-acetyl-3′-deoxy-β-D-ribofuranosyl)-3H-thiazole[4,5-d]pyrimidine-2-one and methods for preparation” (Anadys Pharmaceuticals, Inc., priority 2006, dated 2011).

Where a name gives a salt, the structure may show the parent alone.

The nature of this series: hygroscopicity of the solid form. The class given is physicochemical. As to conditions: solid substance, amorphous free base versus crystalline p-toluene sulfonic acid salt.

Turning to `CC(=O)O[C@@H]1C[C@@H](CO)O[C@H]1n1c(=O)sc2cnc(N)nc21` [Formula 5, 5-amino-3-(2′-O-acetyl-3′-deoxy-beta-D-ribofuranosyl)-3H-thiazolo[4,5-d]pyrimidin-2-one], the hygroscopicity result is given as “hydroscopic”. As for `CC(=O)O[C@@H]1C[C@@H](CO)O[C@H]1n1c(=O)sc2cnc(N)nc21` [Formula (1), p-toluene sulfonic acid salt of 5-amino-3-(2′-O-acetyl-3′-deoxy-beta-D-ribofuranosyl)-3H-thiazolo[4,5-d]pyrimidin-2-one], the hygroscopicity result (listed as p-toluene sulfonic salt) is “only slightly hygroscopic”.
